Experimental data from patent publication US9073855B2, “BCL-2 selective apoptosis-inducing agents for the treatment of cancer and immune diseases” (AbbVie Inc., priority 2008, dated 2015).
pEC50, pKi: −log10 of the molar value.

What was measured:
[1] = system: FL5.12/Bcl-2 cells; assay: FL5.12/Bcl-2 cell viability assay under IL-3 withdrawal (CellTitre Glo); format: cell-based, murine; settings: Mus musculus, IL-3 withdrawn 48 hrs, then 24 hrs with compound
Description: FL5.12 is an IL-3 dependent prolymphocytic murine cell line that undergoes apoptosis upon IL-3 withdrawal as a result of the upregulation of pro-apoptotic Bcl-2 proteins such as Bim and Puma. Stable overexpression of anti-apoptotic Bcl-2 protein (FL5.12/Bcl-2) protects against apoptosis induced by IL-3 withdrawal by sequestration of Bim and Puma. […] The ability of compounds to kill FL5.12/Bcl-2 cells upon IL-3 withdrawal is a direct measure of the compounds' ability to inhibit anti-apoptotic Bcl-2 protein function.
Wild type FL5.12/Bcl-2 overexpressing stable transfectants were cultured in RPMI-1640 supplemented with 2 mM L-glutamine, 10% FBS, 1 mM sodium pyruvate, 2 mM HEPES, 1% penicillin/streptomycin (Invitrogen), 57 μM β-ME, and 10% WEHI-3B conditioned medium (source of IL-3) and maintained at 37° C. containing 5% CO2. 1×10^6 cells/ml were washed 1×PBS and resuspended in medium not supplemented with 10% WEHI-3B for 48 hrs prior to cytotoxicity assays. Cells were then treated for an additional 24 hrs in the presence of various concentrations of the indicated compounds. Cell viability was assessed by CellTitre Glo assay (Promega Corp.) according to the manufacturer's recommendations.

[2] = biological target: GST-Bcl-XL (Homo sapiens, UniProt Q07817); assay: TR-FRET binding assay, GST-Bcl-XL with F-Bak peptide probe; settings: TR-FRET Binding Affinity
Chain of GST-Bcl-XL (Q07817 whole entry, the tested form may be a part): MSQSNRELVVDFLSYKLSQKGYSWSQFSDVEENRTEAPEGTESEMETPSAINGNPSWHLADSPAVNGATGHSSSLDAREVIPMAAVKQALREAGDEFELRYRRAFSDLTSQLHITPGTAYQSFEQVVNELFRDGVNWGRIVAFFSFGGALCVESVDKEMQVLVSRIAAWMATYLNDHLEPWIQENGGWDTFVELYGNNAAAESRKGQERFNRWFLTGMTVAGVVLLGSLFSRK
Summary of the method: (§1)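 Competitive TR-FRET: GST-fusion protein, fluorescent Bak peptide probe and Tb-labelled anti-GST antibody incubated with compound dilution series (starting 50 μM as 2× stock, 10% DMSO) for 3 h at RT. Excitation 340/35 nm; Ki derived via Wang's exact competitive-binding equation.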

[3] = biological target: GST-Bcl-2 (Homo sapiens, UniProt P10415); assay: TR-FRET binding assay, GST-Bcl-2 with F-Bak peptide probe; settings: for pKi: TR-FRET Binding Affinity
Chain of GST-Bcl-2 (P10415 whole entry): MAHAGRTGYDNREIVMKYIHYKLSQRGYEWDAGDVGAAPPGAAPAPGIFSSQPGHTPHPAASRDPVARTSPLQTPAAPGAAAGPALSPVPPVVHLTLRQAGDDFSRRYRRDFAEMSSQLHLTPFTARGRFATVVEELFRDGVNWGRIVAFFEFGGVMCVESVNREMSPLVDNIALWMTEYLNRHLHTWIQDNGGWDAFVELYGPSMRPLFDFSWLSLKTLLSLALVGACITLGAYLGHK
Summary of the method: as §1

[4] = GST-Bcl-XL, F-Bak peptide probe
[5] = TR-FRET, Bcl-XL Ki divided by Bcl-2 Ki

## CC1(C)CCC(CN2CCN(c3ccc(C(=O)NS(=O)(=O)c4ccc(OCC5COCCO5)c([N+](=O)[O-])c4)c(Oc4ccc5[nH]ccc5c4)c3)CC2)=C(c2ccc(Cl)cc2)C1 (centres unmarked) [Example 297, 4-(4-{[2-(4-chlorophenyl)-4,4-dimethylcyclohex-1-en-1-yl]methyl}piperazin-1-yl)-N-{[4-(1,4-dioxan-2-ylmethoxy)-3-nitrophenyl]sulfonyl}-2-(1H-indol-5-yloxy)benzamide]
[1]
  pEC50: 7.88
[2]; [4]
  pKi: 6.55

## COCCNc1ccc(S(=O)(=O)NC(=O)c2ccc(N3CCN(CC4=C(c5ccc(Cl)cc5)CC(C)(C)CC4)CC3)cc2Oc2ccc3[nH]ccc3c2)cc1S(=O)(=O)C(F)(F)F [Example 315, 4-(4-{[2-(4-chlorophenyl)-4,4-dimethylcyclohex-1-en-1-yl]methyl}piperazin-1-yl)-2-(1H-indol-5-yloxy)-N-({4-[(2-methoxyethyl)amino]-3-[(trifluoromethyl)sulfonyl]phenyl}sulfonyl)benzamide]
[1]
  pEC50: < 6.30
[2]; [4]
  pKi: < 6.18

## O=C(NS(=O)(=O)c1ccc(NCC2CCOCC2)c([N+](=O)[O-])c1)c1ccc(N2CCN(Cc3ccccc3N3CC4CCC(CC4)C3)CC2)cc1Oc1ccccc1 [Example 474, 4-{4-[2-(3-azabicyclo[3.2.2]non-3-yl)benzyl]piperazin-1-yl}-N-({3-nitro-4-[(tetrahydro-2H-pyran-4-ylmethyl)amino]phenyl}sulfonyl)-2-phenoxybenzamide]
[1]
  pEC50: 7.03
[3]
  pKi: 8.09

## O=C(NS(=O)(=O)c1ccc(NCCCN2CCOCC2)c([N+](=O)[O-])c1)c1ccc(N2CCN(Cc3ccccc3N3CC4CCC(CC4)C3)CC2)cc1Oc1ccccc1 [Example 477, 4-{4-[2-(3-azabicyclo[3.2.2]non-3-yl)benzyl]piperazin-1-yl}-N-({4-[(3-morpholin-4-ylpropyl)amino]-3-nitrophenyl}sulfonyl)-2-phenoxybenzamide]
[1]
  pEC50: < 5.78
[3]
  pKi: 8.07

## CC1(C)CCC(CN2CCN(c3ccc(C(=O)NS(=O)(=O)c4ccc(NC[C@H]5CCCOC5)c([N+](=O)[O-])c4)c(Oc4ccc5[nH]ccc5c4)c3)CC2)=C(c2ccc(Cl)cc2)C1 [Example 181, 4-(4-{[2-(4-chlorophenyl)-4,4-dimethylcyclohex-1-en-1-yl]methyl}piperazin-1-yl)-2-(1H-indol-5-yloxy)-N-[(3-nitro-4-{[(3R)-tetrahydro-2H-pyran-3-ylmethyl]amino}phenyl)sulfonyl]benzamide]
[1]
  pEC50: 7.47
[2]; [4]
  pKi: < 6.18

## CC1(C)CCC(CN2CCN(c3ccc(C(=O)NS(=O)(=O)c4ccc(NC[C@@H]5CCCOC5)c([N+](=O)[O-])c4)c(Oc4ccc5[nH]ccc5c4)c3)CC2)=C(c2ccc(Cl)cc2)C1 [Example 180, 4-(4-{[2-(4-chlorophenyl)-4,4-dimethylcyclohex-1-en-1-yl]methyl}piperazin-1-yl)-2-(1H-indol-5-yloxy)-N-[(3-nitro-4-{[(3S)-tetrahydro-2H-pyran-3-ylmethyl]amino}phenyl)sulfonyl]benzamide]
[1]
  pEC50: 7.69
[2]; [4]
  pKi: < 6.18

## CC1(C)CCC(CN2CCN(c3ccc(C(=O)NS(=O)(=O)c4ccc(NCC5CCOCC5)c(S(=O)(=O)C(F)(F)F)c4)c(Oc4ccc5[nH]ccc5c4)c3)CC2)=C(c2ccc(Cl)cc2)C1 [Example 304, 4-(4-{[2-(4-chlorophenyl)-4,4-dimethylcyclohex-1-en-1-yl]methyl}piperazin-1-yl)-2-(1H-indol-5-yloxy)-N-({4-[(tetrahydro-2H-pyran-4-ylmethyl)amino]-3-[(trifluoromethyl)sulfonyl]phenyl}sulfonyl)benzamide]
[1]
  pEC50: 6.38
[2]; [4]
  pKi: < 6.18

## COCCNc1ccc(S(=O)(=O)NC(=O)c2ccc(N3CCN(CC4=C(c5ccc(Cl)cc5)CC(C)(C)CC4)CC3)cc2Oc2ccc3[nH]ccc3c2)cc1[N+](=O)[O-] [Example 179, 4-(4-{[2-(4-chlorophenyl)-4,4-dimethylcyclohex-1-en-1-yl]methyl}piperazin-1-yl)-2-(1H-indol-5-yloxy)-N-({4-[(2-methoxyethyl)amino]-3-nitrophenyl}sulfonyl)benzamide]
[1]
  pEC50: 7.63
[2]; [4]
  pKi: < 6.18

## CC1(C)CCC(CN2CCN(c3ccc(C(=O)NS(=O)(=O)c4ccc(N[C@H]5CC[C@H](N6CCOCC6)CC5)c([N+](=O)[O-])c4)c(Oc4ccc5[nH]ccc5c4)c3)CC2)=C(c2ccc(Cl)cc2)C1 [Example 178, Trans-4-(4-{[2-(4-chlorophenyl)-4,4-dimethylcyclohex-1-en-1-yl]methyl}piperazin-1-yl)-2-(1H-indol-5-yloxy)-N-({4-[(4-morpholin-4-ylcyclohexyl)amino]-3-nitrophenyl}sulfonyl)benzamide]
[1]
  pEC50: 7.73
[2]; [4]
  pKi: < 6.18

## O=C(NS(=O)(=O)c1ccc(NCC2CCOCC2)c([N+](=O)[O-])c1)c1ccc(N2CCN(Cc3ccccc3C3=C[C@H]4C[C@@H]3C3CCCC34)CC2)cc1Oc1ccccc1 (stereo partly drawn) [Example 478, 4-(4-{2-[(4R,7S)-2,3,3a,4,7,7a-hexahydro-1H-4,7-methanoinden-5-yl]benzyl}piperazin-1-yl)-N-({3-nitro-4-[(tetrahydro-2H-pyran-4-ylmethyl)amino]phenyl}sulfonyl)-2-phenoxybenzamide]
[1]
  pEC50: < 5.30

## O=C(NS(=O)(=O)c1ccc(NCC2CCOCC2)c(S(=O)(=O)C(F)(F)F)c1)c1ccc(N2CCN(Cc3ccccc3N3CC4CCC(CC4)C3)CC2)cc1Oc1ccccc1 [Example 475, 4-{4-[2-(3-azabicyclo[3.2.2]non-3-yl)benzyl]piperazin-1-yl}-2-phenoxy-N-({4-[(tetrahydro-2H-pyran-4-ylmethyl)amino]-3-[(trifluoromethyl)sulfonyl]phenyl}sulfonyl)benzamide]
[1]
  pEC50: 6.65

## CN1CCC(CNc2ccc(S(=O)(=O)NC(=O)c3ccc(N4CCN(CC5=C(c6ccc(Cl)cc6)CC(C)(C)CC5)CC4)cc3Oc3cccc4[nH]cnc34)cc2[N+](=O)[O-])CC1 [Example 454, 2-(1H-benzimidazol-4-yloxy)-4-(4-{[2-(4-chlorophenyl)-4,4-dimethylcyclohex-1-en-1-yl]methyl}piperazin-1-yl)-N-[(4-{[(1-methylpiperidin-4-yl)methyl]amino}-3-nitrophenyl)sulfonyl]benzamide]
[3]
  pKi: 10.59
[2]
  pKi: 7.72

## CC1(C)CCC(CN2CCN(c3ccc(C(=O)NS(=O)(=O)c4ccc(OCC5CCC(C)(O)CC5)c([N+](=O)[O-])c4)c(Oc4cccc5[nH]ncc45)c3)CC2)=C(c2ccc(Cl)cc2)C1 (stereo not drawn) [Example 533, 4-(4-{[2-(4-chlorophenyl)-4,4-dimethylcyclohex-1-en-1-yl]methyl}piperazin-1-yl)-N-({4-[(trans-4-hydroxy-4-methylcyclohexyl)methoxy]-3-nitrophenyl}sulfonyl)-2-(H-indazol-4-yloxy)benzamide]
[3]
  pKi: > 11.00
[3]; [5]
  Binding selectivity ratio (Bcl-XL Ki/Bcl-2 Ki): >1044.3
[2]
  pKi: 7.98

## CO[C@H]1CC[C@H](COc2ncc(S(=O)(=O)NC(=O)c3ccc(N4CCN(CC5=C(c6ccc(Cl)cc6)CC(C)(C)CC5)CC4)cc3Oc3cccc4[nH]ncc34)cc2Cl)CC1 [Example 414, Trans-N-({5-chloro-6-[(4-methoxycyclohexyl)methoxy]pyridin-3-yl}sulfonyl)-4-(4-{[2-(4-chlorophenyl)-4,4-dimethylcyclohex-1-en-1-yl]methyl}piperazin-1-yl)-2-(1H-indazol-4-yloxy)benzamide]
[3]; GST-Bcl-2, F-Bak peptide probe
  pKi: 11.15
[2]; [4]
  pKi: 7.02

## CC1(C)CCC(CN2CCN(c3ccc(C(=O)NS(=O)(=O)c4ccc(NCC5(F)CCOCC5)c([N+](=O)[O-])c4)c(Oc4cccc5[nH]nnc45)c3)CC2)=C(c2ccc(Cl)cc2)C1 [Example 514, 2-(1H-benzotriazol-4-yloxy)-4-(4-{[2-(4-chlorophenyl)-4,4-dimethylcyclohex-1-en-1-yl]methyl}piperazin-1-yl)-N-[(4-{[(4-fluorotetrahydro-2H-pyran-4-yl)methyl]amino}-3-nitrophenyl)sulfonyl]benzamide]
[3]
  pKi: > 11.00
[3]; [5]
  Binding selectivity ratio (Bcl-XL Ki/Bcl-2 Ki): >1041.3
[2]
  pKi: 7.98

## O=C(NS(=O)(=O)c1ccc(NCCn2ccnn2)c([N+](=O)[O-])c1)c1ccc(N2CCN(Cc3ccccc3-c3ccc(Cl)cc3)CC2)cc1Oc1ccccc1 [Example 164, 4-{4-[(4′-chloro-1,1′-biphenyl-2-yl)methyl]piperazin-1-yl}-N-[(3-nitro-4-{[2-(1H-1,2,3-triazol-1-yl)ethyl]amino}phenyl)sulfonyl]-2-phenoxybenzamide]
[3]; GST-Bcl-2, F-Bak peptide probe
  pKi: 9.02
[2]; [4]
  pKi: 6.86

## CC1(C)CCC(CN2CCN(c3ccc(C(=O)NS(=O)(=O)c4cnc(OCC5(F)CCOCC5)c(C#N)c4)c(Oc4cccc5[nH]ccc45)c3)CC2)=C(c2ccc(Cl)cc2)C1 [Example 393, 4-(4-{[2-(4-chlorophenyl)-4,4-dimethylcyclohex-1-en-1-yl]methyl}piperazin-1-yl)-N-({5-cyano-6-[(4-fluorotetrahydro-2H-pyran-4-yl)methoxy]pyridin-3-yl}sulfonyl)-2-(1H-indol-4-yloxy)benzamide]
[3]; GST-Bcl-2, F-Bak peptide probe
  pKi: 10.08
[3]; ratio of TR-FRET Ki values, Bcl-XL over Bcl-2
  Binding selectivity ratio (Bcl-XL Ki/Bcl-2 Ki): 1109.6
[2]; [4]
  pKi: 7.04
